Each structure is given as a SMILES string.

Assay type in all cases: cell-based
In one assay the target is T1, IKAROS (Homo sapiens, UniProt Q13422+Q96SW2).
T1 construct: endogenous in cells; host or cells: MV-4-11
Kind of assay: IKAROS degradation assay (Western blot, MV-4-11 cells). To be noted: MV4-11, 6-8 h. A digest of the protocol:
(§1)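 Reported degradation is grouped into four bands (A below 25%, B 25% to under 50%, C 50% to under 75%, D 75% or more). Treatment lasts 6-8 h against a DMSO control, followed by RIPA extraction and immunoblotting with near-infrared detection.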
(In western blotting, separated proteins are transferred to a membrane and probed.)

The target in a further assay is T2, CK1α (Homo sapiens, UniProt P48729+Q96SW2).
T2 construct: Whole cell extracts were prepared using RIPA buffer; endogenous in cells; host or cells: MV-4-11
T2 sequence (P48729 whole entry): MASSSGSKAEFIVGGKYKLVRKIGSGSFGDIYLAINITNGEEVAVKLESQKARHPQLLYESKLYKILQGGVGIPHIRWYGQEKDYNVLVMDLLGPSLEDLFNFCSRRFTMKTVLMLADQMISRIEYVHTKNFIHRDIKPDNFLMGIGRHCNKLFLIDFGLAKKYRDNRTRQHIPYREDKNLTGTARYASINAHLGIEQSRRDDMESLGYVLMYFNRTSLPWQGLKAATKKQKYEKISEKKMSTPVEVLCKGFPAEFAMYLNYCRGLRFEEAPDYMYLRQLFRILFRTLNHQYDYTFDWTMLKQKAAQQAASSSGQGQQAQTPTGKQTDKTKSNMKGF
T2 sequence (Q96SW2 whole entry): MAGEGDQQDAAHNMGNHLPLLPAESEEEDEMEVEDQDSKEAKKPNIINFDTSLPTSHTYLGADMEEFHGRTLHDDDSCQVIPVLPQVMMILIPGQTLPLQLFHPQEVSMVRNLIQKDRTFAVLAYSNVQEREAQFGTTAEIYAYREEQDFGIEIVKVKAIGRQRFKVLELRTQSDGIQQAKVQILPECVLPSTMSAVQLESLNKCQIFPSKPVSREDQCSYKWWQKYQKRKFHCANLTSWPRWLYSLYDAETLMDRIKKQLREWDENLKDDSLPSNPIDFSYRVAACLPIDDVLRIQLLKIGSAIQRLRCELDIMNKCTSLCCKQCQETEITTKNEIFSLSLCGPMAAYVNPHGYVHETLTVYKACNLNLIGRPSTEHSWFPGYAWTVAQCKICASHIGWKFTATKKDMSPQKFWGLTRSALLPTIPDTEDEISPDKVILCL
T2 sequence (Q16531 whole entry partner): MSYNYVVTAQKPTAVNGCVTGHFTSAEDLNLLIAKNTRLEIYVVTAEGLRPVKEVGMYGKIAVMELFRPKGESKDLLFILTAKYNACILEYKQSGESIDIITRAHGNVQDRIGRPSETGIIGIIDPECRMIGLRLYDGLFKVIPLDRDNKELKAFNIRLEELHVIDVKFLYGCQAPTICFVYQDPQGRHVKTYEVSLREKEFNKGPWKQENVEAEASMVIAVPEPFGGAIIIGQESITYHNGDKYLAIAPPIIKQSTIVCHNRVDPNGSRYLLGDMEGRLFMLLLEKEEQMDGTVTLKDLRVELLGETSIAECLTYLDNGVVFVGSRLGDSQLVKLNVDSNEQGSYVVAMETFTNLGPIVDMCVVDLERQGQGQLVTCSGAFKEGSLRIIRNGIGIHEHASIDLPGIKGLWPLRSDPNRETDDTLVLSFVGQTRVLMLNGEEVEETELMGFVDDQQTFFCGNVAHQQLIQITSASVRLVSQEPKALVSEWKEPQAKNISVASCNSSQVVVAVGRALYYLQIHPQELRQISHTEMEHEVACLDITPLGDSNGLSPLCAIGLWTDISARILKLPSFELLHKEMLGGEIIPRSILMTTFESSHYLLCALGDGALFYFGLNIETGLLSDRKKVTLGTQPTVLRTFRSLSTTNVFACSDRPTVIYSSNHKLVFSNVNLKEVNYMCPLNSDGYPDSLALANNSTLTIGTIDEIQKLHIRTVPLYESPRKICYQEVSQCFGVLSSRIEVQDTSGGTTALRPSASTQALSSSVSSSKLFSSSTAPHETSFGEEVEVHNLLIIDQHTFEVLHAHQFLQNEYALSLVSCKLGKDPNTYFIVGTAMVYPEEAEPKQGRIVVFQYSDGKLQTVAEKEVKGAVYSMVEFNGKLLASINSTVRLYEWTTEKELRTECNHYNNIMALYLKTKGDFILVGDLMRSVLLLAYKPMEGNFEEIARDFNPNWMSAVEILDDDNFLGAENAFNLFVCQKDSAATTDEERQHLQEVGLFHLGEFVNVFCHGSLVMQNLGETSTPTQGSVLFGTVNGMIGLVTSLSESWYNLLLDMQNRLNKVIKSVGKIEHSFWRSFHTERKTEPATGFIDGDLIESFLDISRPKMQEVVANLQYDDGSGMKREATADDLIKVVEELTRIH
Kind of assay: CK1α degradation assay (Western blot, MV-4-11 cells). To be noted: MV4-11, 6-8 h. The procedure, abridged: as §1

A further assay concerns the target T3, GSPT1 (Homo sapiens, UniProt P15170+Q96SW2).
T3 construct: Whole cell extracts were prepared using RIPA buffer; endogenous in cells; host or cells: MV-4-11
Kind of assay: GSPT1 degradation assay (Western blot, MV-4-11 cells). To be noted: MV4-11, 6-8 h. The procedure, abridged:
as §1

The subject of the next assay is IL-1β. Kind of assay: IL-1β inhibition assay, LPS-induced PBMCs / CD14+ monocytes (Meso Scale). To be noted: 1 h pretreatment, 100 ng/mL LPS 18-24 h. A digest of the protocol:
(§2)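 Thawed human PBMCs or CD14+ mobilized peripheral blood monocytes, 200,000 cells/well in RPMI-1640/10% FBS, pretreated with compound or DMSO 1 h, then stimulated with 100 ng/mL LPS for 18-24 h. Supernatant cytokine measured by Meso Scale; % inhibition binned A–D (<50%, 50–70%, 70–90%, ≥90%), fold-change binned A–D (≤0.1, ≤0.5, ≤1, >1).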

A further assay concerns IL-6. Kind of assay: IL-6 inhibition assay, LPS-induced PBMCs / CD14+ monocytes (Meso Scale). To be noted: 1 h pretreatment, 100 ng/mL LPS 18-24 h. The procedure, abridged: as §2
For a further assay, the system named is TNF-α. Kind of assay: TNF-α inhibition assay, LPS-induced PBMCs / CD14+ monocytes (Meso Scale). To be noted: 1 h pretreatment, 100 ng/mL LPS 18-24 h. The procedure, abridged:
as §2

In another assay the test system is IL-2. Kind of assay: IL-2 fold-change assay, anti-CD3 stimulated PBMCs (Mesoscale). To be noted: PBMC, PBMCs on anti-human CD3, 24 h, fold difference from the DMSO control. Here is the method: For the IL-2 analysis, 96 well plates were precoated with 1 μg/mL anti-human CD3 antibody (OK3, eBioscience Inc., San Diego, Calif.). After washing with PBS, the indicated compound was added (50 μL/well) followed by PBMCs diluted at 3-4 million cells/mL (150 μL/well). Plates were incubated for 24 h and the supernatants collected for Mesoscale IL-2 analysis. IL-2 activity is measured as fold difference from the DMSO control.
In Table 6, the % inhibition values are reported as “A”, “B”, “C”, or “D”. “A” represents a % inhibition value of less than 50% (value <50%). “B” represents a % inhibition value of equal to or more than 50% and less than 70% (50%≤value<70%). “C” represents a % inhibition value of equal to or more than 70% and less than 90% (70%≤value<90%). “D” represents a % inhibition value of equal or more than 90% (value ≥90%). In Table 7, the fold-change values are reported as “A”, “B”, “C”, or “D”. “A” represents a fold-change value of equal to or less than 0.1 (value ≤0.1). “B” represents a fold-change value of more than 0.1 and equal to or less than 0.5 (0.1<value≤0.5). “C” represents a fold-change value of more than 0.5 and equal to or less than 1 (0.5<value≤1). “D” represents a fold-change value of more than 1 (value >1).

A further assay concerns MOLM-13 cells. Kind of assay: MOLM-13 cell viability assay (CellTiter-Glo). To be noted: Homo sapiens, MOLM-13, 72 h, 3 days, read-out: MOLM-13 Cell Viability % DMSO at 1 μM. A digest of the protocol:
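MOLM-13 cells at 2500 cells/well were exposed to compound for 3 days at 37 °C. Viability was read by CellTiter-Glo luminescence and expressed as % of DMSO control, binned A (<50%), B (50–<70%), C (70–<90%) or D (≥90%).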
For orientation: ATP-based viability assays read luminescence as a measure of living cells.

A further assay addresses T4, CDK9 (Homo sapiens, UniProt P50750).
T4 construct: Whole cell extracts were prepared using RIPA buffer; endogenous in cells; host or cells: MV-4-11
Kind of assay: CDK9 degradation assay (Western blot, MV-4-11 cells). The note with it: 6-8 h; for Dmax at 0.1 µM: MV4-11, 0.1 μM; for Dmax at 1 µM: MV4-11, 1 μM. A digest of the protocol: as §1

The target in a further assay is T5, CDK16 (Homo sapiens, UniProt Q00536).
T5 construct: Whole cell extracts were prepared using RIPA buffer; endogenous in cells; host or cells: MV-4-11
T5 sequence (Q00536 whole entry): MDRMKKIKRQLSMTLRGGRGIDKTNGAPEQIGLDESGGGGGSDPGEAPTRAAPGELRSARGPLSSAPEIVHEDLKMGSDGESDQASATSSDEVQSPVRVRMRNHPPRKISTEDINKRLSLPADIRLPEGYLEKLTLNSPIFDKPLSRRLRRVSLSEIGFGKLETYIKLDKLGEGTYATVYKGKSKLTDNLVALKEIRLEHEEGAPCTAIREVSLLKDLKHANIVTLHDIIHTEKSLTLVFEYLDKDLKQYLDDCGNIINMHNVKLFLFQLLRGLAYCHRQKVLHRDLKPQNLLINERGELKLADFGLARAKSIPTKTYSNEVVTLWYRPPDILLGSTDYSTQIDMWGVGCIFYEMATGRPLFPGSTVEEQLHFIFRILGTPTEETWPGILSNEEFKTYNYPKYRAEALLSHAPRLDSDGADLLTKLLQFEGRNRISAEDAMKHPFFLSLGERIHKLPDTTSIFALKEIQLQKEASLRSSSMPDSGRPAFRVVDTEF
Kind of assay: CDK16 degradation assay (Western blot, MV-4-11 cells). The note with it: 6-8 h; for Dmax at 0.1 µM: MV4-11, 0.1 μM; for Dmax at 1 µM: MV4-11, 1 μM. The procedure, abridged: as §1

T1 sequence (Q13422 whole entry): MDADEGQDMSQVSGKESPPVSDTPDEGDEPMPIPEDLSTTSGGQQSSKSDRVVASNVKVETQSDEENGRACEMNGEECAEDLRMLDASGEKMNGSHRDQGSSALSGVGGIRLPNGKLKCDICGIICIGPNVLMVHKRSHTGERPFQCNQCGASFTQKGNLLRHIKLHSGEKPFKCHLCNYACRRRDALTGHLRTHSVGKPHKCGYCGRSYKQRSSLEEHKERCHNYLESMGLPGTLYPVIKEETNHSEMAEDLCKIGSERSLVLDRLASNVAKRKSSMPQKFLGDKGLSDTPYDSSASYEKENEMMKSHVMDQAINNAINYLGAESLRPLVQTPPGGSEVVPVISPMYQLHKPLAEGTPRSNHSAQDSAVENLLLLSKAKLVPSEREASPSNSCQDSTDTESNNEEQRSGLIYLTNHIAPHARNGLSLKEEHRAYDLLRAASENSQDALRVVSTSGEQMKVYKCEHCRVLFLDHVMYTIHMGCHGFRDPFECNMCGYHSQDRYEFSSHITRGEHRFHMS
T1 sequence (Q96SW2 whole entry): as the sequence (Q96SW2 whole entry) above
T1 sequence (Q16531 whole entry partner): as the sequence (Q16531 whole entry partner) above
T3 sequence (P15170 whole entry): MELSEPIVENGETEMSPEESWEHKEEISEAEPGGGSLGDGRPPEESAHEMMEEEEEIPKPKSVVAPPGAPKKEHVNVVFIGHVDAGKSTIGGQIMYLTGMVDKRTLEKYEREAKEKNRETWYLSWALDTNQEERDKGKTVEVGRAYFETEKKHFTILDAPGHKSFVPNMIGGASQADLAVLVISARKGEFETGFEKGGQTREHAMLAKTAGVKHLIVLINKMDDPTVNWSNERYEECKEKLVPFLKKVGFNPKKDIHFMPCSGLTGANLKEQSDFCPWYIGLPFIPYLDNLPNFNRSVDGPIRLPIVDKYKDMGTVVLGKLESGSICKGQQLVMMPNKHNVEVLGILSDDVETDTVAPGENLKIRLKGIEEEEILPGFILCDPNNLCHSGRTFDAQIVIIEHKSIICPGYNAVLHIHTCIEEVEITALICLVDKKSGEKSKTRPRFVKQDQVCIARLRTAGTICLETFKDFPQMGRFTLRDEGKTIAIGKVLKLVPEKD
T3 sequence (Q96SW2 whole entry): as the sequence (Q96SW2 whole entry) above
T3 sequence (Q16531 whole entry partner): as the sequence (Q16531 whole entry partner) above
T4 sequence (P50750 whole entry): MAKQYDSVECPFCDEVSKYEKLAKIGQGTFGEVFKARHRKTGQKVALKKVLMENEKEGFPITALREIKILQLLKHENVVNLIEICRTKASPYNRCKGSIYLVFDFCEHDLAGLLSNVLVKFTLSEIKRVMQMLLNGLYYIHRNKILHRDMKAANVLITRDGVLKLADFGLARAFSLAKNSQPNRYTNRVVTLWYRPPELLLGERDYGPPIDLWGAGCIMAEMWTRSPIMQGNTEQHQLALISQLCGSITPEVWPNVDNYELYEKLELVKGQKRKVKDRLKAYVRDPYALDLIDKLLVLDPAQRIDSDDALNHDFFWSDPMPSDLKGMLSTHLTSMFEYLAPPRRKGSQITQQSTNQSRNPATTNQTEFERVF

On to `Cn1ncc(-c2nc(N[C@H]3CC[C@H](NCC(=O)NCCCCNCC(=O)NCc4scc5c4C(=O)N(C4CCC(=O)NC4=O)C5=O)CC3)ncc2Cl)c1CC1CC1` (stereo partly shown) [Compound 51, 2-(((1r,4r)-4-((5-chloro-4-(5-(cyclopropylmethyl)-1-methyl-1H-pyrazol-4-yl)pyrimidin-2-yl)amino)cyclohexyl)amino)-N-(4-((2-(((5-(2,6-dioxopiperidin-3-yl)-4,6-dioxo-5,6-dihydro-4H-thieno[3,4-c]pyrrol-1-yl)methyl)amino)-2-oxoethyl)amino)butyl)acetamide], for which the figures for the Dmax at 1 µM at IKAROS, on CK1α and on GSPT1 were 50 to 75%, 25 to 50% and 25 to 50%, respectively. Also, the inhibition at 1 µM with IL-1β, in the assay with IL-6 and in the assay on TNF-α was above 90% throughout. Also, the fold induction at 1 µM in the assay on IL-2 is at most 0.1. Also, in the assay on MOLM-13 cells, the viability at 1 µM was above 90%.
Regarding `CC(C)(C)c1cnc(CSc2cnc(NC(=O)C3CCN(CC(=O)NCCCCCCCNC(=O)NCc4cc5c(s4)C(=O)N(C4CCC(=O)NC4=O)C5)CC3)s2)o1` (stereo not shown) [Compound 18, N-(5-(((5-(tert-butyl)oxazol-2-yl)methyl)thio)thiazol-2-yl)-1-(2-((7-(3-((5-(2,6-dioxopiperidin-3-yl)-6-oxo-5,6-dihydro-4H-thieno[2,3-c]pyrrol-2-yl)methyl)ureido)heptyl)amino)-2-oxoethyl)piperidine-4-carboxamide], the Dmax at 1 µM is 25 to 50% on IKAROS, 50 to 75% at CK1α and 50 to 75% at GSPT1. In addition, the inhibition at 1 µM in the assay on IL-1β was above 90%; with IL-6 it was above 90%; with TNF-α, 70 to 90%. Further, the fold induction at 1 µM in the assay with IL-2 was at most 0.1. For the same compound, the viability at 1 µM in the assay with MOLM-13 cells was above 90%.
As to `CC(C)(C)c1cnc(CSc2cnc(NC(=O)C3CCN(CC(=O)NCCOCCOCCOCCNCC(=O)NCc4scc5c4CN(C4CCC(=O)NC4=O)C5=O)CC3)s2)o1` (stereo not shown) [Compound 41, N-(5-(((5-(tert-butyl)oxazol-2-yl)methyl)thio)thiazol-2-yl)-1-(1-(5-(2,6-dioxopiperidin-3-yl)-4-oxo-5,6-dihydro-4H-thieno[3,4-c]pyrrol-1-yl)-3,18-dioxo-8,11,14-trioxa-2,5,17-triazanonadecan-19-yl)piperidine-4-carboxamide], the Dmax at 1 µM is 50 to 75% on IKAROS; 50 to 75% on CK1α; at least 75% at GSPT1; at least 75% on CDK9; below 25% on CDK16. The figures for the Dmax at 0.1 µM at CDK9 and at CDK16 were 50 to 75% and below 25%, respectively. Also, the values for the inhibition at 1 µM in the assay with IL-1β, with IL-6 and in the assay on TNF-α were above 90%, above 90% and 70 to 90%, respectively. For the same compound, the fold induction at 1 µM in the assay on IL-2 was 0.1 to 0.5. The viability at 1 µM in the assay on MOLM-13 cells lay in the range of 70 to 90%.
For the compound `Cn1ncc(-c2nc(N[C@H]3CC[C@H](NCC(=O)NCCCCNCC(=O)NCc4cc5c(s4)C(=O)N(C4CCC(=O)NC4=O)C5=O)CC3)ncc2F)c1CC1CC1` (stereo partly shown) [Compound 37, 2-(((1r,4r)-4-((4-(5-(cyclopropylmethyl)-1-methyl-1H-pyrazol-4-yl)-5-fluoropyrimidin-2-yl)amino)cyclohexyl)amino)-N-(4-((2-(((5-(2,6-dioxopiperidin-3-yl)-4,6-dioxo-5,6-dihydro-4H-thieno[2,3-c]pyrrol-2-yl)methyl)amino)-2-oxoethyl)amino)butyl)acetamide], the Dmax at 1 µM on IKAROS was in the range of 25 to 50%; at CK1α, 25 to 50%; at GSPT1 it was 50 to 75%. Also, the inhibition at 1 µM in the assay with IL-1β was above 90%; in the assay with IL-6 it was above 90%; with TNF-α, 70 to 90%. Also, the fold induction at 1 µM with IL-2 lay within 0.1 to 0.5. Moreover, in the assay on MOLM-13 cells, the viability at 1 µM lay within 50 to 70%.
Take `Cn1ncc(-c2nc(N[C@H]3CC[C@H](NCCOCCOCCNCc4ccc(OCc5scc6c5CN([C@H]5CCC(=O)NC5=O)C6=O)cc4)CC3)ncc2Cl)c1CC1CC1` [Compound 67, (S)-3-(1-((4-(((2-(2-(2-(((1r,4r)-4-((5-chloro-4-(5-(cyclopropylmethyl)-1-methyl-1H-pyrazol-4-yl)pyrimidin-2-yl)amino)cyclohexyl)amino)ethoxy)ethoxy)ethyl)amino)methyl)phenoxy)methyl)-4-oxo-4H-thieno[3,4-c]pyrrol-5(6H)-yl)piperidine-2,6-dione]: the Dmax at 1 µM at IKAROS was in the range of 25 to 50%; at CK1α it was 25 to 50%; at GSPT1 it was 50 to 75%. For the same compound, the inhibition at 1 µM in the assay on IL-1β, in the assay on IL-6 and in the assay on TNF-α was above 90% in each case. The fold induction at 1 µM in the assay on IL-2 fell in the range of 0.5 to 1. Moreover, the viability at 1 µM in the assay with MOLM-13 cells was above 90%.
`CC(C)(C)c1cnc(CSc2cnc(NC(=O)C3CCN(CC(=O)NCCOCCOCCNCC(=O)NCc4cc5c(s4)C(=O)N(C4CCC(=O)NC4=O)C5)CC3)s2)o1` (stereo not shown) [Compound 34, N-(5-(((5-(tert-butyl)oxazol-2-yl)methyl)thio)thiazol-2-yl)-1-(1-(5-(2,6-dioxopiperidin-3-yl)-6-oxo-5,6-dihydro-4H-thieno[2,3-c]pyrrol-2-yl)-3,15-dioxo-8,11-dioxa-2,5,14-triazahexadecan-16-yl)piperidine-4-carboxamide]: the Dmax at 1 µM is 50 to 75% at IKAROS; 25 to 50% on CK1α; 50 to 75% at GSPT1; at least 75% on CDK9; below 25% at CDK16. Also, the Dmax at 0.1 µM is below 25% at CDK9 and 25 to 50% at CDK16. The inhibition at 1 µM with IL-1β, in the assay with IL-6 and in the assay on TNF-α was 70 to 90% in each case. Moreover, in the assay with IL-2, the fold induction at 1 µM is at most 0.1. In the assay with MOLM-13 cells, the viability at 1 µM is above 90%.
On to `Cn1ncc(-c2nc(N[C@H]3CC[C@H](NCC(=O)NCCOCCOCCOCCNc4cccc5c4CN(C4CCC(=O)NC4=O)C5=O)CC3)ncc2Cl)c1CC1CC1` (stereo partly shown) [Compound 55, 2-(((1r,4r)-4-((5-chloro-4-(5-(cyclopropylmethyl)-1-methyl-1H-pyrazol-4-yl)pyrimidin-2-yl)amino)cyclohexyl)amino)-N-(2-(2-(2-(2-((2-(2,6-dioxopiperidin-3-yl)-1-oxoisoindolin-4-yl)amino)ethoxy)ethoxy)ethoxy)ethyl)acetamide], for which the figures for the Dmax at 1 µM at IKAROS, on CK1α and at GSPT1 were at least 75%, 25 to 50% and 50 to 75%, respectively. Further, the inhibition at 1 µM with IL-1β, in the assay with IL-6 and in the assay on TNF-α was above 90% each time. The fold induction at 1 µM in the assay with IL-2 was at most 0.1. The viability at 1 µM in the assay on MOLM-13 cells was above 90%.

For orientation: Dmax means the largest share of the target that was removed. Higher therefore signals deep degradation. For orientation: inhibition means the share of the control response that was lost under treatment. Usually fold induction stands for the ratio of treated to control signal. For orientation: viability means a per cent measure of how many cells are alive, often set against a control.

Values taken from patent US20220153751A1, “BIFUNCTIONAL COMPOUNDS” (BioTheryX, Inc., priority 2018, published 2022).
